Results on three molecules are retold here after article PMC9139161, “Phenolics from Chrozophora oblongifolia Aerial Parts as Inhibitors of α-Glucosidases and Advanced Glycation End Products: In-Vitro Assessment, Molecular Docking and Dynamics Studies” (Biology, 2022).

A word on the IC50: it is the concentration at which inhibition is half-maximal.

The subject of test [1] is advanced glycation end products (AGEs) formation, BSA-fructose model. Nature of the test: AGEs formation inhibition, BSA-fructose assay. Particulars: AGEs fluorescence, 72 h, 37 °C; read-out: BSA-Fructose Model IC50 (Mean ± SE). It counts as biochemical. Here is the method:
(§1) The isolated compounds were prepared at final concentrations of 500 µM in DMSO in the BSA-fructose assay, and 1000 µM in all other AGEs assays. Compounds that exceeded 50% inhibition at this concentration were serially diluted to determine their IC50. All tests were conducted using quercetin (positive control).
According to the previous report, the inhibition test for AGE formation was assessed using the BSA-fructose model. Briefly, BSA (50 mg/mL) and fructose (1.25 M) (in 200 mM phosphate buffer, pH 7.4, with 0.02% sodium azide) were incubated with Sample/blank in the dark for 72 h at 37 °C, (1:1:1 by volume). On a microplate reader (Fluostar Omega BMG Labtech, Ortenberg, Germany), fluorescent AGEs were detected using excitation and emission wavelengths of 355 nm and 460 nm, respectively. Triplicates of all experiments were performed, and the percentage of AGEs inhibition was calculated.

The test system of test [2] is advanced glycation end products (AGEs) formation, arginine-methylglyoxal model. Briefly: AGEs formation inhibition, arginine-methylglyoxal assay. The format is biochemical. The conditions noted are these: AGEs fluorescence, 72 h, 37 °C; read-out: Arginine-Methylglyoxal Model IC50 (Mean ± SE). Here is the method:
as §1
The determination of the inhibitory effect of the isolated compounds on the formation of AGEs in the arginine methylglyoxal model was used as described previously with slight modification. Briefly, in black 96-microwell plates, a sample was incubated for 72 h at 37 °C in the dark with methylglyoxal (53.3 mM, in distilled water) and 106.6 mM arginine (in 200 mM phosphate buffer, pH 7.4, with 0.02% sodium azide), (1:1:1 v/v/v). On a microplate reader (Fluostar Omega/BMG Labtech/Germany), fluorescent AGEs were detected using excitation and emission wavelengths of 355 nm and 460 nm, respectively. Triplicates of all experiments were performed.

Test [3] has as its system advanced glycation end products (AGEs) formation, BSA-methylglyoxal model. Nature of the test: AGEs formation inhibition, BSA-methylglyoxal assay. The format is biochemical. The conditions noted are these: AGEs fluorescence, 72 h, 37 °C; read-out: BSA-Methylglyoxal Model IC50 (Mean ± SE). The procedure:
as §1
AGEs inhibitory activity of the isolated compounds was determined according to the reported procedures with slight modification. Briefly, in black 96-microwell plates, samples were incubated for 72 h at 37 °C in the dark with bovine serum albumin (BSA, 50 mg/mL) (in 200 mM phosphate buffer, pH 7.4, with 0.02% sodium azide) and methyl-glyoxal (53.3 mM, in distilled water), (1:1:1 v/v/v). On a microplate reader (Fluostar Omega/BMG Labtech/Germany), fluorescent AGEs were detected using excitation and emission wavelengths of 355 nm and 460 nm, respectively. Triplicates of all experiments were performed.

Another test is described as follows: ABTS assay. The conditions noted are these: concentration-response curve. Here is the method: DMSO was used for the preparation of 0.5 mg/mL concentrations of isolated compounds, meanwhile, the positive control (ascorbic acid) was used to prepare a stock solution of 1000 µM in water; from which seven concentrations were prepared including 7.812, 15.625, 31.25, 62.5, 125, 250 and 500 µM to construct the concentration-response curve (Supplementary Data Figure S2). The activity of the tested compounds to scavenge the free radicals of ABTS (2,2′-azino-bis (3-ethylbenzothiazoline-6-sulfonic acid)) was assessed according to the methodology reported previously with slight modifications.
Five milliliters of aqueous solution (7 mM) of ABTS was mixed with 88 µL potassium persulfate (140 mM) and the mixture was kept in the dark for 16 h to produce ABTS radical cation (ABTS^•+). Then methanol was added to the reaction mixture to dilute the formed ABTS^•+ solution to an absorbance of 0.700 (1:50) at 690 nm.
Ten microliters of the tested compound were incubated with 190 μL of ABTS^•+ solution in a 96-well plate for thirty minutes in the dark and the absorbance was measured later using a microplate reader (TECAN, Männedorf, Switzerland) at 690 nm. Data are represented as means (n = 3) ± SD and the antioxidant effect of the tested compounds was calculated as µM Ascorbic acid equivalents by substitution in the linear regression equation (Supplementary Figure S2).

The next test can be described thus: DPPH assay. Particulars: read-out: DPPH assay IC50 (Mean ± SE). The procedure: Isolated compounds were prepared in final concentrations of 1000 µM in DMSO. Compounds that exceeded 50% inhibition at this concentration were serially diluted to determine their IC50. Ascorbic acid was used as a positive control, prepared in a concentration of 100 µM in water from which six concentrations were prepared to calculate its IC50. The method is based on the reduction of free radical of 2,2-diphenyl-1-picrylhydrazyl (DPPH). Briefly, in a 96-well plate, 20 μL of the isolated compound was incubated for 20 min in the absence of light with 180 μL of DPPH reagent (100 μM). The reduction of intensity in the color of DPPH was assessed on a microplate reader (TECAN, Männedorf, Switzerland) at 540 nm (Supplementary Table S2).
Background: The DPPH test is a chemical assay of radical scavenging.

Test [4] can be described thus: Metal chelation assay (ferrozine). The conditions noted are these: concentration-response curve. The procedure: Isolated compounds were dissolved in DMSO to prepare a concentration of 0.5 mg/mL, meanwhile, the positive control (EDTA) was used to prepare a stock solution of 100 µM in water; from which six concentrations were prepared including 5, 10, 20, 40, 50 and 80 µM to construct the dose-response curve. The assay was carried out as previously reported, with minor modifications. Briefly, in 96 wells plate (n = 6) 20 µL of the freshly prepared ferrous sulfate (0.3 mM) was mixed with 50 µL of the tested compound and incubated with 30 µL of ferrozine (0.8 mM) for 10 min at room temperature. Finally, reduction in color intensity was assessed at 540 nm using a microplate reader (Tecan, San Jose, CA, USA). Data are represented as means (n = 3) ± SD and the antioxidant effect of the extracts was calculated as µM EDTA equivalents by substitution in the linear regression equation (Supplementary Figure S4).

Structures are written as SMILES.

On to `O=c1c(O)c(-c2ccc(O)c(O)c2)oc2cc(O)cc(O)c12` [Quercetin, quercetin, reference compound], for which the IC50 in test [1] was 62 µM; in test [2] it was 536 µM; in test [3] it was 941 µM.
Regarding `O=C1O[C@H]([C@@H](O)CO)C(O)=C1O` [ascorbic acid, Ascorbic acid], the ABTS % inhibition is listed as 2.8930% in “ABTS assay” (7.8125 µM); 3.7803% in “ABTS assay” (15.625 µM); 5.5156% in “ABTS assay” (31.25 µM); 9.7291% in the test “ABTS assay” (62.5 µM); 16.88% in the test “ABTS assay” (125 µM); 33.5451% in the test “ABTS assay” (250 µM). Besides, the ABTS % inhibition in “ABTS assay” (500 µM) was 62.86%. The IC50 in “DPPH assay” turned out to be 28 µM.
`O=C(O)CN(CCN(CC(=O)O)CC(=O)O)CC(=O)O` [EDTA, reference compound]: the “Metal chelation % inhibition” value turned out to be 8.429% in test [4] (5 µM); 13.464% in test [4] (10 µM); 19.624% in test [4] (20 µM); 41.866% in test [4] (40 µM); 48.303% in test [4] (50 µM); 72.307% in test [4] (80 µM).
